Usually inhibition stands for the relative decrease from the control value, in per cent.

SMILES strings stand for the structures.

This assay deals with T1, FGFR2 (N549H) (Homo sapiens, UniProt P21802, N549H).
T1 construct: purchased Millipore 14-742
As to the kind of experiment: FGFR2 kinase activity assay (fluorescent ELISA). In kind it is biochemical. The settings on record: 30 μM compound. The procedure:
A fluorescent ELISA assay was developed to identify and characterize inhibitors of FGFR2 kinase. This heterogeneous assay utilized a biotinylated peptide with a tyrosine motif as a substrate and an anti-phospho-tyrosine antibody to measure phosphorylation of the substrate. The reaction was initiated by adding a test compound, 37 uM Pyk2 substrate (Midwest Biotech, cat. #MBT2383), 12.5 uM ATP (Roche, cat. #11 140 965 001), and 0.5 uM FGFR2 enzyme (Millipore, cat. #14-742) sequentially to a non-binding polypropylene V-well plate. All reagents were in assay buffer consisting of: 50 mM Tris-HCL, 0.02 mg/mL BSA, 10 mM MgCl2, 0.1 mM Na3VO4, 1 mM EGTA, […], 0.01% NP-40, 2 mM DTT, 10% Glycerol. The reaction was incubated for 60 minutes. As the reaction proceeded, FGFR2 phosphorylated tyrosines in the peptide. The reaction mixture was then moved to a blocked streptavidin coated Nunc Maxisorb plate (coated with 100 ng streptavidin from Pierce (cat #15-124) per well) allowing for the capture of the biotinylated peptide. Peptide was captured for 30 minutes at room temperature, the phosphorylation of peptide continues during this phase. The reaction was stopped by washing the Streptavidin plate 6 times with TBST. Phosphorylated peptide was detected by adding anti-phospho tyrosine antibody (purchased from Cell Signaling, cat. #9411, diluted 1:3000), unbound antibody was removed by washing 6 times with TBST. Secondary detection was performed using Alkaline Phosphatase tagged goat anti-mouse antibody (purchased from Pierce, cat. #31320, diluted 1:4000) for one hour. Unbound secondary antibody was removed by washing 6 times with TBST.
The fluorescent readout was initiated by the addition of Promega Attophos substrate (purchased from Promega; Kit catalog number: S1000, dilution=6 mg/10 mL), which when dephosphorylated by Alkaline phosphatase emitted a fluorescent signal of […] when excited by a signal […]. This reading was done on the Perkin Elmer Envision system. […] The signal was directly proportional to the activity of FGFR2 and compound inhibition of FGFR2 was monitored by a decrease in signal.
On the technique in general: ELISA stands for enzyme-linked immunosorbent assay.

T1 sequence (P21802 22-821 N549H): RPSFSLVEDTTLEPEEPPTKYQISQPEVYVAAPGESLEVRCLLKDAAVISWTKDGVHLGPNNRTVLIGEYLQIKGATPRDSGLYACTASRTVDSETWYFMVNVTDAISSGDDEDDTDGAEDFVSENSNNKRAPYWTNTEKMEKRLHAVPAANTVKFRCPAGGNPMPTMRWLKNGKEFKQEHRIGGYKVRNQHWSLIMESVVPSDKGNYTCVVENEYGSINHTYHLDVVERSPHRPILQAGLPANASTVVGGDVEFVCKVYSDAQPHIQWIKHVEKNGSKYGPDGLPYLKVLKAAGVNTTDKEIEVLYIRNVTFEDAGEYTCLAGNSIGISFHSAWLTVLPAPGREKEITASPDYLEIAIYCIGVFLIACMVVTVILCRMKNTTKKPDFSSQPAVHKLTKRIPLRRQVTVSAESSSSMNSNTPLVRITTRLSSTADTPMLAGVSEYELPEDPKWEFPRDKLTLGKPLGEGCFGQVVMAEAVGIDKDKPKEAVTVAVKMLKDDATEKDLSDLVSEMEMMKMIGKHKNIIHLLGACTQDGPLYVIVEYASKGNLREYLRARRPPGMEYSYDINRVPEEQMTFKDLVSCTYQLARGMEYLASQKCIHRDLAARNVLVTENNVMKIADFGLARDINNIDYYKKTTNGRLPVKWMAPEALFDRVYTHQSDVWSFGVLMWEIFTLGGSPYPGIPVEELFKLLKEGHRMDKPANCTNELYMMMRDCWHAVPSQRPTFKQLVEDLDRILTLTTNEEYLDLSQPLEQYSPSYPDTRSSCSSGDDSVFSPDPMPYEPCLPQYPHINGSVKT

As to `COc1ccc(C)cc1Nc1nccn2c(N)nnc12` [Compound 124, N^8-(2-methoxy-5-methylphenyl)[1,2,4]triazolo[4,3-a]pyrazine-3,8-diamine], the inhibition at 30 µM was 73.5%.

In the case of `COc1ccc(OC)c(Nc2nccn3c(NC(=O)OC(C)C)nnc23)c1` [Compound 46, isopropyl {8-[(2,5-dimethoxyphenyl)amino][1,2,4]triazolo[4,3-a]pyrazin-3-yl}carbamate], the inhibition at 30 µM was 84.6%.

As to `Nc1nnc2c(Nc3ccccc3F)nccn12` [Compound 121, N^8-(2-fluorophenyl)[1,2,4]triazolo[4,3-a]pyrazine-3,8-diamine], the inhibition at 30 µM stood at 65.7%.

Regarding `CC(C)OC(=O)Nc1nnc2c(Nc3nc4ccccc4[nH]3)nccn12` [Compound 56, isopropyl [8-(1H-benzimidazol-2-ylamino)[1,2,4]triazolo[4,3-a]pyrazin-3-yl]carbamate], the inhibition at 30 µM turned out to be 64.7%.

On to `Nc1nnc2c(NCc3ccccc3F)nccn12` [Compound 153, N^8-(2-fluorobenzyl)[1,2,4]triazolo[4,3-a]pyrazine-3,8-diamine], for which the inhibition at 30 µM was 72.9%.

On to `CC(C)OC(=O)Nc1nnc2c(Nc3ccc(C(C)(C)C)cc3)nccn12` [Compound 50, isopropyl {8-[(4-tert-butylphenyl)amino][1,2,4]triazolo[4,3-a]pyrazin-3-yl}carbamate], for which the inhibition at 30 µM was determined as 63.6%.

As to `CC(C)OC(=O)Nc1nnc2c(NCc3ccccc3F)nccn12` [Compound 84, isopropyl {8-[(2-fluorobenzyl)amino][1,2,4]triazolo[4,3-a]pyrazin-3-yl}carbamate], the inhibition at 30 µM was 84%.

For the compound `Cc1ccccc1Nc1nccn2c(NC(=O)OC(C)C)nnc12` [Compound 14, isopropyl {8-[(2-methylphenyl)amino][1,2,4]triazolo[4,3-a]pyrazin-3-yl}carbamate], the inhibition at 30 µM stood at 82%.

In the case of `COc1cc(CCNc2nccn3c(NC(=O)OC(C)C)nnc23)cc(OC)c1` [Compound 31, isopropyl (8-{[2-(3,5-dimethoxyphenyl)ethyl]amino}[1,2,4]triazolo[4,3-a]pyrazin-3-yl)carbamate], the inhibition at 30 µM turned out to be 96.5%.

For the compound `CC(C)OC(=O)Nc1nnc2c(NCc3cccc(Cl)c3)nccn12` [Compound 24, isopropyl {8-[(3-chlorobenzyl)amino][1,2,4]triazolo[4,3-a]pyrazin-3-yl}carbamate], the inhibition at 30 µM stood at 65.3%.

For `Cc1ccc(N(C)c2nccn3c(N)nnc23)cc1` [Compound 107, N^8-methyl-N^8-(4-methylphenyl)[1,2,4]triazolo[4,3-a]pyrazine-3,8-diamine], the inhibition at 30 µM turned out to be 86.1%.

Consider `Nc1nnc2c(NCc3ccc(Br)cc3)nccn12` [Compound 140, N^8-(4-bromobenzyl)[1,2,4]triazolo[4,3-a]pyrazine-3,8-diamine], for which the inhibition at 30 µM amounted to 52.9%.

Regarding `COc1ccc(Cl)c(Nc2nccn3c(N)nnc23)c1` [Compound 154, N^8-(2-chloro-5-methoxyphenyl)[1,2,4]triazolo[4,3-a]pyrazine-3,8-diamine], the inhibition at 30 µM was found to be 82.8%.

`CC(C)OC(=O)Nc1nnc2c(Nc3ccc4c(c3)CCC4)nccn12` [Compound 34, isopropyl [8-(2,3-dihydro-1H-inden-5-ylamino)[1,2,4]triazolo[4,3-a]pyrazin-3-yl]carbamate]: the inhibition at 30 µM was found to be 68.7%.

Turning to `Cc1cccc(CNc2nccn3c(N)nnc23)c1C` [Compound 131, N^8-(2,3-dimethylbenzyl)[1,2,4]triazolo[4,3-a]pyrazine-3,8-diamine], the inhibition at 30 µM turned out to be 65.7%.

As for `CN(c1cccc(Cl)c1)c1nccn2c(N)nnc12` [Compound 155, N^8-(3-chlorophenyl)-N^8-methyl[1,2,4]triazolo[4,3-a]pyrazine-3,8-diamine], the inhibition at 30 µM is 57.4%.

For `Cc1cccc(CCNc2nccn3c(NC(=O)OC(C)C)nnc23)c1` [Compound 42, isopropyl (8-{[2-(3-methylphenyl)ethyl]amino}[1,2,4]triazolo[4,3-a]pyrazin-3-yl)carbamate], the inhibition at 30 µM amounted to 58.7%.

For the compound `Nc1nnc2c(Nc3cccc(F)c3)nccn12` [Compound 99, N^8-(3-fluorophenyl)[1,2,4]triazolo[4,3-a]pyrazine-3,8-diamine], the inhibition at 30 µM was 60.7%.

Take `Cc1cccc(Nc2nccn3c(N)nnc23)c1` [Compound 118, N^8-(3-methylphenyl)[1,2,4]triazolo[4,3-a]pyrazine-3,8-diamine]: the inhibition at 30 µM was 50.4%.

Take `Cc1cccc2c(CCNc3nccn4c(NC(=O)OC(C)C)nnc34)c[nH]c12` [Compound 85, isopropyl (8-{[2-(7-methyl-1H-indol-3-yl)ethyl]amino}[1,2,4]triazolo[4,3-a]pyrazin-3-yl)carbamate]: the inhibition at 30 µM was 50.6%.

As to `CC(C)OC(=O)Nc1nnc2c(NCc3cc(C(F)(F)F)cc(C(F)(F)F)c3)nccn12` [Compound 66, isopropyl (8-{[3,5-bis(trifluoromethyl)benzyl]amino}[1,2,4]triazolo[4,3-a]pyrazin-3-yl)carbamate], the inhibition at 30 µM was determined as 58.4%.

With `Nc1nnc2c(Nc3cccc(Br)c3)nccn12` [Compound 142, N^8-(3-bromophenyl)[1,2,4]triazolo[4,3-a]pyrazine-3,8-diamine], the inhibition at 30 µM is 59.9%.

Turning to `CC(C)OC(=O)Nc1nnc2c(NCCc3ccc(Oc4ccccc4)cc3)nccn12` [Compound 36, isopropyl (8-{[2-(4-phenoxyphenyl)ethyl]amino}[1,2,4]triazolo[4,3-a]pyrazin-3-yl)carbamate], the inhibition at 30 µM was found to be 51.4%.

With `CC(C)OC(=O)Nc1nnc2c(NCCc3ccc(F)cc3)nccn12` [Compound 28, isopropyl (8-{[2-(4-fluorophenyl)ethyl]amino}[1,2,4]triazolo[4,3-a]pyrazin-3-yl)carbamate], the inhibition at 30 µM worked out at 51.6%.

Take `COc1ccc(Cl)cc1Nc1nccn2c(NC(=O)OC(C)C)nnc12` [Compound 7, isopropyl {8-[(5-chloro-2-methoxyphenyl)amino][1,2,4]triazolo[4,3-a]pyrazin-3-yl}carbamate]: the inhibition at 30 µM was 55.5%.

On to `CCc1ccc(CNc2nccn3c(N)nnc23)cc1` [Compound 139, N^8-(4-ethylbenzyl)[1,2,4]triazolo[4,3-a]pyrazine-3,8-diamine], for which the inhibition at 30 µM was 96.3%.

Regarding `COc1ccc(C)cc1Nc1nccn2c(NC(=O)OC(C)C)nnc12` [Compound 23, isopropyl {8-[(2-methoxy-5-methylphenyl)amino][1,2,4]triazolo[4,3-a]pyrazin-3-yl}carbamate], the inhibition at 30 µM came to 50.9%.

On to `Nc1nnc2c(NCc3ccccc3Br)nccn12` [Compound 92, N^8-(2-bromobenzyl)[1,2,4]triazolo[4,3-a]pyrazine-3,8-diamine], for which the inhibition at 30 µM was 59.2%.

As for `CC(C)OC(=O)Nc1nnc2c(N(C)Cc3ccccc3)nccn12` [Compound 30, isopropyl {8-[benzyl(methyl)amino][1,2,4]triazolo[4,3-a]pyrazin-3-yl}carbamate], the inhibition at 30 µM is 56.3%.

With `CC(C)OC(=O)Nc1nnc2c(N(C)c3ccc(Cl)cc3)nccn12` [Compound 87, isopropyl {8-[(4-chlorophenyl)(methyl)amino][1,2,4]triazolo[4,3-a]pyrazin-3-yl}carbamate], the inhibition at 30 µM came out at 57.7%.

Take `CC(C)OC(=O)Nc1nnc2c(NCc3ccccc3C(F)(F)F)nccn12` [Compound 48, isopropyl (8-{[2-(trifluoromethyl)benzyl]amino}[1,2,4]triazolo[4,3-a]pyrazin-3-yl)carbamate]: the inhibition at 30 µM stood at 87%.

For `Nc1nnc2c(NCc3ccc(C(F)(F)F)cc3)nccn12` [Compound 100, N^8-[4-(trifluoromethyl)benzyl][1,2,4]triazolo[4,3-a]pyrazine-3,8-diamine], the inhibition at 30 µM was 66.5%.

Turning to `CC(C)OC(=O)Nc1nnc2c(NCc3ccc(C(F)(F)F)cc3)nccn12` [Compound 17, isopropyl (8-{[4-(trifluoromethyl)benzyl]amino}[1,2,4]triazolo[4,3-a]pyrazin-3-yl)carbamate], the inhibition at 30 µM was 68.8%.

For `CC(C)OC(=O)Nc1nnc2c(Nc3cccc(Cl)c3)nccn12` [Compound 67, isopropyl {8-[(3-chlorophenyl)amino][1,2,4]triazolo[4,3-a]pyrazin-3-yl}carbamate], the inhibition at 30 µM was determined as 119%.

As for `CC(C)OC(=O)Nc1nnc2c(NCc3ccc(-c4ccccc4)cc3)nccn12` [Compound 61, isopropyl {8-[(biphenyl-4-ylmethyl)amino][1,2,4]triazolo[4,3-a]pyrazin-3-yl}carbamate], the inhibition at 30 µM came out at 100%.

As to `COc1ccccc1N(C)c1nccn2c(NC(=O)OC(C)C)nnc12` [Compound 41, isopropyl {8-[(2-methoxyphenyl)(methyl)amino][1,2,4]triazolo[4,3-a]pyrazin-3-yl}carbamate], the inhibition at 30 µM worked out at 62.5%.

Values taken from patent US8329705B2, “Substituted triazolo-pyrazine compounds” (ArQule, Inc., priority 2009, dated 2012).
